Patent US8114901B2, “Crystalline 2,5-dione-3-(1-methyl-1H-indol-3-yl)-4-[1-(pyridin-2-ylmethyl)piperidin-4-yl]-1H-indol-3-yl]-1H-pyrrole mono-hydrochloride” (Eli Lilly and Company, priority 2002, dated 2012)
Where “and” joins values, the source holds several entries; their conditions need not be identical. Equal values may be shown once. Read-outs that look alike come from different tables or passages of the source.

Assays:
[1] = Hygroscopicity / moisture sorption (weight gain vs RH); type: physicochemical
Excerpt: The different water contents prompted an investigation into the moisture sorption characteristics of those lots of crystalline FB-HCl that were not anhydrous. […] Crystalline FB-HCl material capable of water sorption is hereafter referred to as “hygroscopic F-I”.

[2] = Plasma pharmacokinetics after single oral gavage, cross-over design; type: in vivo; settings: fed female beagle dogs; for AUC0-24 / AUC0-inf / Cmax: single oral 5 mg/kg by gavage, individual animals 1-6, 5 mg/kg
Method: The 6 dogs were randomized into two treatment groups to receive single doses of FB Form I followed by a single dose of F-I two weeks later, or vice versa. On Days 1 and 14, 3 dogs received FB Form 1 and 3 dogs received F-I, and blood samples were collected at 0.5, 1, 2, 3, 4, 8, 12 and 24 hours post dosing. Concentrations of FB Form I were determined by liquid chromatography tandem mass spectrometry.

[3] = tested on: VEGF-stimulated proliferation of HUVEC cells; assay: VEGF-stimulated proliferation of HUVEC cells in culture; type: cell-based; settings: 72 hours of exposure
Excerpt: (§1) The salt of the present invention is an inhibitor of vascular endothelial growth factor (VEGF)-induced angiogenesis. […] These assay systems are more fully described in WO 02/02116. The salt of the present invention is, thus, effective in treating cancer and inhibiting tumor growth.

[4] = tested on: VEGF-induced neo-angiogenesis; assay: VEGF-induced neo-angiogenesis in the rat corneal micropocket; type: in vivo; settings: administered orally for 10 days
Excerpt: as §1

[5] = Equilibrium solubility in aqueous media at ambient temperature, HPLC after 24 hours; type: physicochemical; settings: for Amt Dissolved: 24 hours equilibration
Method: Extensive equilibrium solubility determinations were undertaken for both hygroscopic and anhydrous F-I in a variety of aqueous media at ambient temperature. Additionally, the equilibrium solubility of FB Form I was measured at ambient temperature.

[6] = Intrinsic dissolution of 100 mg compact; type: physicochemical; settings: for % of 100 mg Compact Dissolved in 10 Minutes: Dissolution Medium 0.1 N HCl
Method: To confirm that variability in the hygroscopicity of F-I lots should not adversely impact bioavailability, intrinsic dissolution rates were also measured for the hygroscopic and anhydrous F-I. For comparison purposes, the intrinsic dissolution rate of FB Form I was also measured.

[7] = 0.01 N HCl, ambient temperature
[8] = SIF, fed pH 5.0, ambient temperature
[9] = pH 2.2 buffer, ambient temperature

Molecule | hygroscopicity [1] | Filtrate pH ([5]; 0.01 N HCl) | Amt Dissolved [5, 7] | Filtrate pH ([5]; SIF, fed pH 5.0) | Amt Dissolved [5, 8] | Filtrate pH ([5]; pH 2.2 buffer) | Amt Dissolved [5, 9] | dissolution of a 100 mg compact within 10 minutes [6] | % of 100 mg Compact Dissolved in 10 Minutes [6] | further results
Cl.Cn1cc(C2=C(c3cn(C4CCN(Cc5ccccn5)CC4)c4ccccc34)C(=O)NC2=O)c2ccccc21 [F-I] | not significantly hygroscopic |  |  |  |  |  |  |  |  | weight gain ([1]; at 95% RH): < 2%; hygroscopicity ([1]; between 0-70% RH): relatively non-hygroscopic; plasma exposure (AUC 0 to 24 hr and 0 to infinity) compared with FB Form I ([2]; single oral 5 mg/kg): significantly higher; AUC0-24 ([2]; mono-hydrochloride): 3.5923 µM·h and 1.735 µM·h and 2.97 µM·h and 4.0644 µM·h and 6.1501 µM·h and 2.9445 µM·h; AUC0-inf ([2]; mono-hydrochloride): 3.8286 µM·h and 1.7984 µM·h and 3.0161 µM·h and 4.2008 µM·h and 6.6308 µM·h and 2.9983 µM·h; Cmax ([2]; mono-hydrochloride): 481 nM and 327 nM and 679 nM and 501 nM and 774 nM and 450 nM; inhibition of VEGF-stimulated proliferation of HUVEC cells [3]: potent inhibitor; inhibition of VEGF-induced neo-angiogenesis in the rat corneal micropocket [4]: highly effective inhibitor
Cn1cc(C2=C(c3cn(C4CCN(Cc5ccccn5)CC4)c4ccccc34)C(=O)NC2=O)c2ccccc21 [FB Form I] |  | 2.20 | 0.279 mg/mL and 0.355 mg/mL | 4.94 | 0.073 mg/mL and 0.074 mg/mL | 2.21 | 0.346 mg/mL and 0.336 mg/mL | > 10% | >30% | AUC0-24 [2]: 2.4431 µM·h and 0.3893 µM·h and 2.0924 µM·h and 3.4775 µM·h and 5.1195 µM·h and 2.2702 µM·h; AUC0-inf [2]: 2.5786 µM·h and 0.4006 µM·h and 2.1139 µM·h and 3.6031 µM·h and 5.3331 µM·h and 2.3063 µM·h; Cmax [2]: 336 nM and 99.8 nM and 532 nM and 600 nM and 552 nM and 718 nM
Cl.Cn1cc(C2=C(C3CCN(Cc4ccccn4)CC3)C(=O)NC2=O)c2ccccc21 [Hygroscopic F-I] |  | 2.25 | 0.046 mg/mL and 0.053 mg/mL | 4.93 | 0.014 mg/mL and 0.015 mg/mL | 2.26 | 0.324 mg/mL and 0.352 mg/mL | no appreciable dissolution | <<0.5% | maximum moisture sorption ([1]; at 40% RH): 1.6%
tartrate | only slightly hygroscopic |  |  |  |  |  |  |  |  | weight gain ([1]; at RH's up to 70%): ~1%
